What was measured:
Type in all cases: in vivo
[1] = test system: ducksalad (Heteranthera limosa); test: Test B flooded paddy test; details: Heteranthera limosa, Flood, 250 g ai/ha; scale of 0 to 100 where 0 is no effect and 100 is complete control; read-out: Ducksalad plant response rating
How it was run: (§1)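 2-leaf plants; pots flooded 3 cm over soil; cpd added to paddy water; depth held; greenhouse 13–15 d; visual rating vs controls, 0 = no effect, 100 = complete control.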

[2] = test system: sedge, umbrella (small-flower umbrella sedge, Cyperus difformis); test: Test B flooded paddy test; details: Cyperus difformis, Flood, 250 g ai/ha; scale of 0 to 100 where 0 is no effect and 100 is complete control; read-out: Sedge, Umbrella plant response rating
How it was run: as §1

[3] = test system: barnyardgrass (Echinochloa crus-galli); test: Test B flooded paddy test; details: Echinochloa crus-galli, Flood, 250 g ai/ha; scale of 0 to 100 where 0 is no effect and 100 is complete control; read-out: Barnyardgrass plant response rating
How it was run: as §1

rice (Oryra sativa) = test: Test B flooded paddy test; details: Oryza sativa, Flood, 250 g ai/ha; scale of 0 to 100 where 0 is no effect and 100 is complete control; read-out: Rice plant response rating
How it was run: as §1

Kochia (Kochia scoparia) [4] = test: Test A preemergence; details: Bassia scoparia, pre-emergence, 240 h, read-out: Plant response rating, Kochia; for pest or weed control at 125 g/ha: 125 g ai/ha, preemergence, visual rating after approx. 10 d, 0 to 100 scale where 0 is no effect and 100 is complete control; for pest or weed control at 31 g/ha: Preemergence, 31 g ai/ha, 0 to 100 scale (0 no effect, 100 complete control)
How it was run: (§2)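 Greenhouse, ~10 d after spray; visual injury vs untreated controls, 0 = no effect, 100 = complete control. Preemergence: directed soil spray over planted seeds. Postemergence: plants 2–10 cm, 1–2 leaf stage. Loam/sand blend. Compound in non-phytotoxic solvent with surfactant.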

[5] = test system: ragweed (common ragweed, Ambrosia elatior); test: Test A preemergence; details: Ambrosia artemisiifolia, pre-emergence, 240 h, read-out: Plant response rating, Ragweed; for pest or weed control at 125 g/ha: 125 g ai/ha, preemergence, visual rating after approx. 10 d, 0 to 100 scale where 0 is no effect and 100 is complete control; for pest or weed control at 31 g/ha: Preemergence, 31 g ai/ha, 0 to 100 scale (0 no effect, 100 complete control)
How it was run: as §2

[6] = test system: ryegrass, Italian (Italian ryegrass, Lolium multiflorum); test: Test A preemergence; details: Lolium multiflorum, pre-emergence, 240 h, read-out: Plant response rating, Ryegrass, Italian; for pest or weed control at 125 g/ha: 125 g ai/ha, preemergence, visual rating after approx. 10 d, 0 to 100 scale where 0 is no effect and 100 is complete control; for pest or weed control at 31 g/ha: Preemergence, 31 g ai/ha, 0 to 100 scale (0 no effect, 100 complete control)
How it was run: as §2

[7] = test system: pigweed (Amaranthus retroflexus); test: Test A preemergence; details: Amaranthus retroflexus, pre-emergence, 240 h, read-out: Plant response rating, Pigweed; for pest or weed control at 125 g/ha: 125 g ai/ha, preemergence, visual rating after approx. 10 d, 0 to 100 scale where 0 is no effect and 100 is complete control; for pest or weed control at 31 g/ha: Preemergence, 31 g ai/ha, 0 to 100 scale (0 no effect, 100 complete control)
[8] = test system: barnyardgrass (Echinochloa crus-galli); test: Test A preemergence; details: Echinochloa crus-galli, pre-emergence, 240 h, read-out: Plant response rating, Barnyardgrass; for pest or weed control at 125 g/ha: 125 g ai/ha, preemergence, visual rating after approx. 10 d, 0 to 100 scale where 0 is no effect and 100 is complete control; for pest or weed control at 31 g/ha: Preemergence, 31 g ai/ha, 0 to 100 scale (0 no effect, 100 complete control)
How it was run: as §2

[9] = test system: giant foxtail (Setaria faberii); test: Test A preemergence; details: Setaria faberi, pre-emergence, 240 h, read-out: Plant response rating, Foxtail, Giant; for pest or weed control at 125 g/ha: 125 g ai/ha, preemergence, visual rating after approx. 10 d, 0 to 100 scale where 0 is no effect and 100 is complete control; for pest or weed control at 31 g/ha: Preemergence, 31 g ai/ha, 0 to 100 scale (0 no effect, 100 complete control)
How it was run: as §2

Kochia (Kochia scoparia) [10] = test: Test A postemergence; details: Bassia scoparia, post-emergence, 240 h; for pest or weed control at 125 g/ha: 125 g ai/ha, postemergence; for pest or weed control at 31 g/ha: Postemergence, 31 g ai/ha, visual injury after approx. 10 d, 0 to 100 scale, 0 no effect, 100 complete control
How it was run: as §2

[11] = test system: ryegrass, Italian (Italian ryegrass, Lolium multiflorum); test: Test A postemergence; details: Lolium multiflorum, post-emergence, 240 h; for pest or weed control at 125 g/ha: 125 g ai/ha, postemergence; for pest or weed control at 31 g/ha: Postemergence, 31 g ai/ha, visual injury after approx. 10 d, 0 to 100 scale, 0 no effect, 100 complete control
How it was run: as §2

[12] = test system: pigweed (Amaranthus retroflexus); test: Test A postemergence; details: Amaranthus retroflexus, post-emergence, 240 h; for pest or weed control at 125 g/ha: 125 g ai/ha, postemergence; for pest or weed control at 31 g/ha: Postemergence, 31 g ai/ha, visual injury after approx. 10 d, 0 to 100 scale, 0 no effect, 100 complete control
How it was run: as §2

[13] = test system: giant foxtail (Setaria faberii); test: Test A postemergence; details: Setaria faberi, post-emergence, 240 h; for pest or weed control at 125 g/ha: 125 g ai/ha, postemergence; for pest or weed control at 31 g/ha: Postemergence, 31 g ai/ha, visual injury after approx. 10 d, 0 to 100 scale, 0 no effect, 100 complete control
How it was run: as §2

[14] = read-out: Plant response rating, Kochia
[15] = read-out: Plant response rating, Ryegrass, Italian
[16] = read-out: Plant response rating, Pigweed
[17] = read-out: Plant response rating, Foxtail, Giant
[18] = visual injury rating after approximately 10 d, read-out: Kochia plant response rating (0 to 100 scale, 0 no effect, 100 complete control)
[19] = visual injury rating after approximately 10 d, read-out: Ryegrass, Italian plant response rating (0 to 100 scale, 0 no effect, 100 complete control)
[20] = visual injury rating after approximately 10 d, read-out: Pigweed plant response rating (0 to 100 scale, 0 no effect, 100 complete control)
[21] = visual injury rating after approximately 10 d, read-out: Foxtail, Giant plant response rating (0 to 100 scale, 0 no effect, 100 complete control)

Row | Structure (SMILES) | pest or weed control at 250 g/ha [1] | pest or weed control at 250 g/ha [2] | pest or weed control at 250 g/ha [3] | pest or weed control at 250 g/ha (rice (Oryra sativa)) | pest or weed control at 125 g/ha (Kochia (Kochia scoparia) [4]) | pest or weed control at 31 g/ha (Kochia (Kochia scoparia) [4]) | pest or weed control at 125 g/ha [5] | pest or weed control at 31 g/ha [5] | pest or weed control at 125 g/ha [6] | pest or weed control at 31 g/ha [6] | pest or weed control at 125 g/ha [7] | pest or weed control at 31 g/ha [7] | pest or weed control at 125 g/ha [8] | pest or weed control at 31 g/ha [8] | pest or weed control at 125 g/ha [9] | pest or weed control at 31 g/ha [9] | pest or weed control at 31 g/ha (Kochia (Kochia scoparia) [10]; [14]) | pest or weed control at 31 g/ha [11, 15] | pest or weed control at 31 g/ha [12, 16] | pest or weed control at 31 g/ha [13, 17] | other results
1 | Cc1cc(F)cc([C@H]2CN(C)C(=O)[C@@H]2C(=O)Nc2cccc(F)c2C#N)c1 [Compound 800] | 95% | 0% | 95% | 30% | 0% | 0% | 0% | 0% | 40% | 0% | 20% | 0% | 90% | 80% | 90% | 80% | 0% | 0% | 20% | 80% | pest or weed control at 125 g/ha (Kochia (Kochia scoparia) [10]; visual injury after approximately 10 d, 0 to 100 scale (0 no effect, 100 complete control), read-out: Plant response rating, Kochia): 0%; pest or weed control at 125 g/ha ([11]; visual injury after approximately 10 d, 0 to 100 scale (0 no effect, 100 complete control), read-out: Plant response rating, Ryegrass, Italian): 20%; pest or weed control at 125 g/ha ([12]; visual injury after approximately 10 d, 0 to 100 scale (0 no effect, 100 complete control), read-out: Plant response rating, Pigweed): 40%; pest or weed control at 125 g/ha ([13]; visual injury after approximately 10 d, 0 to 100 scale (0 no effect, 100 complete control), read-out: Plant response rating, Foxtail, Giant): 80%
2 | Cc1cc(F)cc([C@H]2CN(C)C(=O)[C@@H]2C(=O)Nc2cccc(F)c2C)c1 [Compound 802] | 100% | 0% | 90% | 20% | 50% | 0% | 60% | 0% | 40% | 0% | 50% | 40% | 90% | 80% | 90% | 90% | 20% | 0% | 30% | 70% | pest or weed control at 125 g/ha (Kochia (Kochia scoparia) [10]; [18]): 40%; pest or weed control at 125 g/ha [11, 19]: 40%; pest or weed control at 125 g/ha [12, 20]: 40%; pest or weed control at 125 g/ha [13, 21]: 90%
3 | CN1C[C@H](c2ccc(C(F)(F)F)c(Br)c2)[C@@H](C(=O)Nc2cccc(F)c2F)C1=O [Compound 804] | 80% | 0% | 30% | 60% | 20% | 0% | 0% | 0% | 50% | 40% | 60% | 0% | 90% | 70% | 80% | 70% | 40% | 0% | 50% | 60% | pest or weed control at 125 g/ha (Kochia (Kochia scoparia) [10]; [18]): 70%; pest or weed control at 125 g/ha [11, 19]: 0%; pest or weed control at 125 g/ha [12, 20]: 60%; pest or weed control at 125 g/ha [13, 21]: 80%
4 | CN1CC[C@H](c2cccc(OC(F)(F)F)c2)[C@@H](C(=O)Nc2ccccc2C(F)(F)F)C1=O [Compound 806] | 75% | 0% | 0% | 0% | 0% | 0% | 0% | 0% | 0% | 0% | 0% | 0% | 0% | 0% | 0% | 0% | 0% | 0% | 0% | 0% | pest or weed control at 125 g/ha (Kochia (Kochia scoparia) [10]; [18]): 0%; pest or weed control at 125 g/ha [11, 19]: 0%; pest or weed control at 125 g/ha [12, 20]: 0%; pest or weed control at 125 g/ha [13, 21]: 0%
5 | CN1CC[C@H](c2cccc(OC(F)(F)F)c2)[C@@H](C(=O)Nc2ccc(F)c(F)c2F)C1=O [Compound 808] | 100% | 0% | 70% | 15% | 0% | 0% | 0% | 0% | 30% | 0% | 0% | 0% | 100% | 100% | 90% | 70% | 0% | 0% | 0% | 70% | pest or weed control at 125 g/ha (Kochia (Kochia scoparia) [10]; [18]): 0%; pest or weed control at 125 g/ha [11, 19]: 0%; pest or weed control at 125 g/ha [12, 20]: 0%; pest or weed control at 125 g/ha [13, 21]: 80%

— US12077503B2, “Substituted cyclic amides and their use as herbicides” (FMC CORPORATION, priority 2015, dated 2024)
